Measured values as given in Sander's compilation of Henry's law constants (doi:10.1016/0045-6535(85)90029-3).

Assay: Henry solubility constant Hcp at 298.15 K (mol/(m3 Pa))
Settings: reference: Oliver (1985)

SMILES	Henry solubility constant Hcp
Clc1cccc(Cl)c1Cl [1,2,3-trichlorobenzene]	0.011
Clc1cc(Cl)c(Cl)cc1Cl [1,2,4,5-tetrachlorobenzene]	0.0099
Clc1cc(Cl)cc(Cl)c1 [1,3,5-trichlorobenzene]	0.0052
Clc1cccc(Cl)c1 [1,3-dichlorobenzene]	0.0055
Clc1ccc(Cl)cc1 [1,4-dichlorobenzene]	0.0066
Clc1cccc(-c2cccc(Cl)c2Cl)c1Cl [2,2',3,3'-tetrachlorobiphenyl]	0.082
Clc1cc(Cl)c(-c2cc(Cl)c(Cl)cc2Cl)cc1Cl [2,2',4,4',5,5'-hexachlorobiphenyl]	0.16
Clc1ccc(Cl)c(-c2cc(Cl)c(Cl)cc2Cl)c1 [2,2',4,5,5'-pentachlorobiphenyl]	0.14
Clc1ccc(Cl)c(-c2cc(Cl)ccc2Cl)c1 [2,2',5,5'-tetrachlorobiphenyl]	0.082
Clc1ccc(Cl)c(-c2ccccc2Cl)c1 [2,2',5-trichlorobiphenyl]	0.049
Cc1c(Cl)ccc(Cl)c1Cl [2,3,6-trichloromethylbenzene]	0.0066
Cc1cc(Cl)c(Cl)cc1Cl [2,4,5-trichloromethylbenzene]	0.0066
ClC(Cl)=C(Cl)C(Cl)=C(Cl)Cl [hexachlorobutadiene]	0.0023
ClC(Cl)=C(Cl)c1c(Cl)c(Cl)c(Cl)c(Cl)c1Cl [octachlorostyrene]	0.076
Cc1c(Cl)c(Cl)c(Cl)c(Cl)c1Cl [pentachloromethylbenzene]	0.013
